Experimental data taken from ChEMBL document CHEMBL5126536, “Small molecules targeting γ-secretase and their potential biological applications” (Eur J Med Chem, 2022).

What was measured:
[1] = Inhibition of amyloid beta (unknown origin) production; set-up: species or system Homo sapiens
[2] = Inhibition of Notch cleavage in transgenic HEK293 cells; format: cell-based; details: Homo sapiens
[3] = Inhibition of Notch in human H4 cells; format: cell-based
[4] = molecular target: Gamma-secretase; experiment: Inhibition of gamma-secretase in human H4 cells assessed as reduction in amyloid beta 42; format: cell-based
[5] = test system: Mus musculus; experiment: Antialzheimer activity in Tg2576 mouse model assessed as decrease in amyloid beta 42 level at 10 mg/kg measured on day 8; format: functional; set-up: scale not given: the % may be the effect or the level left; details: time 8 day
[6] = test system: Mus musculus; experiment: Antialzheimer activity in Tg2576 mouse model assessed as decrease in amyloid beta 40 level at 10 mg/kg measured on day 8; format: functional; set-up: scale not given: the % may be the effect or the level left; details: time 8 day
[7] = Inhibition of Notch (unknown origin) by cell-based assay; details: Homo sapiens
[8] = molecular target: Amyloid-beta precursor protein (Homo sapiens, UniProt P05067); experiment: Modulation of amyloid beta 42 in human H4 cells expressing APP751 incubated overnight by ELISA; format: cell-based
Chain of Amyloid-beta precursor protein (P05067 whole entry): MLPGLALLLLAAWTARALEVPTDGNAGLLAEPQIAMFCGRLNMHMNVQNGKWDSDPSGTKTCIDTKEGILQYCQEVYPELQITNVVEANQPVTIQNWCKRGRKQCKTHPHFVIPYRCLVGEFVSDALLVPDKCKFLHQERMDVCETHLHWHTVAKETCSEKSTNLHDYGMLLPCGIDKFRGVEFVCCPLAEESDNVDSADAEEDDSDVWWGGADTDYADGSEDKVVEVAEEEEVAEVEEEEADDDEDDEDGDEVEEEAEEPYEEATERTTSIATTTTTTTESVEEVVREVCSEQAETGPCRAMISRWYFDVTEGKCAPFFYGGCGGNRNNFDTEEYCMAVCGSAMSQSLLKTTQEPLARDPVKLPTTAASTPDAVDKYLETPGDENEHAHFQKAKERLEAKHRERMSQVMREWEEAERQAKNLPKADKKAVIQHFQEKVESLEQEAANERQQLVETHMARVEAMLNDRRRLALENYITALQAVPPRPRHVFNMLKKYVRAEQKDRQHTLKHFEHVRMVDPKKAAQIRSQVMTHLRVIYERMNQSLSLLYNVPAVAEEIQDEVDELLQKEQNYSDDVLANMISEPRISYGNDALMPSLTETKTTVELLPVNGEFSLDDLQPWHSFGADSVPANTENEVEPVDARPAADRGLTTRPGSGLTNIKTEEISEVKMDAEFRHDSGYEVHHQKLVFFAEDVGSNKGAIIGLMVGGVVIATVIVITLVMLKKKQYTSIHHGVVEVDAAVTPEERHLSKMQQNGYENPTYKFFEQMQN

[9] = organism: Homo sapiens; experiment: Selectivity ratio, ratio of IC50 for gamma-secretase (unknown origin) to IC50for Notch (unknown origin)
[10] = Metabolic stability in human liver microsomes assessed as half life; format: ADME, Microsome
[11] = molecular target: Gamma-secretase; experiment: Inhibition of gamma-secretase (unknown origin) assessed as inhibition of Amyloid beta 40 production by cell-free assay; format: protein-complex assay, Homo sapiens
[12] = molecular target: Gamma-secretase; experiment: Inhibition of gamma-secretase (unknown origin) assessed as inhibition of Amyloid beta 42 production by cell-free assay; format: protein-complex assay, Homo sapiens
[13] = Ratio of drug concentration in Tg2576 mouse brain to plasma at 1 to 30 mg/kg, po; format: ADME, organism-based; details: dose 1-30 mg/kg, read-out: BPR
[14] = Toxicity in Sprague-Dawley rat assessed as maximum tolerated dose administered orally upto 28 days consecutively; details: in vivo, route po, time < 28 day
[15] = Modulation of gamma-secretase in human H4 cells expressing APPswe mutant assessed as reduction in amyloid beta 42 by ELISA; format: cell-based
[16] = Oral bioavailability in rat; format: ADME, organism-based; details: in vivo
[17] = Half life in rat; format: ADME; details: in vivo
[18] = test system: Mus musculus; experiment: Modulation of gamma secretase in hippocampus of C57BL mouse assessed as reduction in amyloid beta 42 at 3 mg/kg, po measured for 0.5 to 18 hrs by ELISA relative to control; format: organism-based; set-up: scale not given: the % may be the effect or the level left; details: time 0.5-18 hrs
[19] = test system: Mus musculus; experiment: Modulation of gamma secretase in hippocampus of C57BL mouse assessed as reduction in amyloid beta 42 at 10 mg/kg, po measured for 0.5 to 18 hrs by ELISA relative to control; format: organism-based; details: filed as modulator, time 0.5-18 hrs

For `C[C@H](NC(=O)[C@@H](O)c1cc(F)cc(F)c1)C(=O)N[C@@H]1C(=O)N(C)c2ccccc2-c2ccccc21`, the IC50 [1] was 0.082 nM and the IC50 [2] was 0.39 nM.

Work on `CC(C)[C@H](O)C(=O)N[C@@H](C)C(=O)N[C@@H]1C(=O)N(C)CCc2ccccc21` yielded an IC50 [3] of 14.1 nM, an IC50 [4] of 10.9 nM and an Activity [5] of 22%. It also gave an Activity [6] of 22%.

Molecule `C[C@H](NC(=O)CCC(F)(F)F)C(=O)N[C@@H]1C(=O)N(CCO)c2ncccc2-c2ccccc21` has an IC50 [7] of 0.41 nM.

With `COc1nc(C2=NOC[C@H](c3cc4ccccc4o3)N2)ccc1-n1cnc(C)c1` the EC50 [8] was 35 nM.

With `O=S(=O)(N[C@H](CO)C(C(F)(F)F)C(F)(F)F)c1ccc(Cl)s1` [BEGACESTAT] the Ratio IC50 [9] was 16.8, the half-life [10] was 90 min and the EC50 [11] was 14.8 nM. It also gave an EC50 [12] of 12.4 nM, a Kp [13] of over 1 and an MTD at 672 h [14] of 2000 mg/kg/day.

For `O=C(O)C1(c2ccc(-c3ccc(Cl)c(Cl)c3)c(F)c2)CC1`, the IC50 [15] was 3.6 µM, the bioavailability [16] was 50% and the half-life [17] was 1200 min.

`COc1cc(-c2nnc3n2CCC[C@]3(Oc2cc(F)c(F)c(F)c2)C(C)(C)O)ccc1-c1cnc(C)o1` showed an Activity [18] of 23.2% and an inhibition [19] of 46.5%.
